Measured values as given in PMC5902575, “Characterization of AiiK, an AHL lactonase, from Kurthia huakui LAM0618^T and its application in quorum quenching on Pseudomonas aeruginosa PAO1” (Scientific Reports, 2018).

Target: T1, AiiK (Kurthia huakuii, UniProt Z9B3F0ZFT1)
T1 construct: primer-encoded N-terminus MCQNKKLY
Test: HPLC of remaining AHL at […] nm, Michaelis-Menten fit
Format: biochemical
Details: 10 mM PBS pH 7.4, 25 °C, 10 min, 4 μg/mL enzyme, 25–150 μM substrate; unit given as mM^−1 in the source; unit of the source corrected

T1 sequence (Z9B3F0ZFT1 1-278 limits assumed): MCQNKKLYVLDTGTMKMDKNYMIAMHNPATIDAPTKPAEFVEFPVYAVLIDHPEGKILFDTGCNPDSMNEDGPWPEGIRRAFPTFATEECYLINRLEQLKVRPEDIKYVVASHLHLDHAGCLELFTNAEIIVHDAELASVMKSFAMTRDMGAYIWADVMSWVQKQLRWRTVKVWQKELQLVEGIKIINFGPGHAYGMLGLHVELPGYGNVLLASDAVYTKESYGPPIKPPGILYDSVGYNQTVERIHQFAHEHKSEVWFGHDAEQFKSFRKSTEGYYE

In the case of `CCCC(=O)CC(=O)N[C@H]1CCOC1=O` [3-Oxo-C6-HSL], the Mean ± SD / Km(mM^-1) is reported as 0.066 ± 0.02 mM.

For `CCCCCC(=O)N[C@H]1CCOC1=O` [C6-HSL], the Mean ± SD / Km(mM^-1) was 0.204 ± 0.031 mM.

Work on `CCCCCCCCCC(=O)N[C@H]1CCOC1=O` [C10-HSL] yielded a Mean ± SD / Km(mM^-1) of 0.315 ± 0.065 mM.

`CCCCCCCCCCCCCC(=O)N[C@H]1CCOC1=O` [C14-HSL] showed a Mean ± SD / Km(mM^-1) of 0.036 ± 0.004 mM.
